Measured values: patent publication US20260028332A1, “POLYMORPHIC FORM OF GLP-1R AGONIST, PREPARATION METHOD THEREFOR AND USE THEREOF” (MINDRANK THERAPEUTICS (SUZHOU) NEW DRUG RESEARCH AND …, priority 2022, published 2026)
Converted amounts (≈) assume the structure as drawn.

Legend:
Format in all cases: physicochemical
[1] = Equilibrium solubility study of polymorph in biological media (supernatant concentration; residual solid by XRPD); details: for Whether the crystal form is changed: residual solid by XRPD after 24 h at 37±2° C.; for solubility thermodynamic at 24 h: 37 °C, thermodynamic from solid, suspension ~10 mg/mL, 37±2° C.
[2] = Solid state stability study of polymorph (purity by HPLC and crystal form change after 7 days storage); details: for Purity (%) / Initial purity (%): HPLC; for Initial purity (%): before storage
[3] = Hygroscopic behavior test by dynamic vapor sorption (DVS); details: for solid form change after DVS / hygroscopicity / Sample weight change at 80% RH (%): 25° C.; for solid form change after DVS: 0-90% RH; for hygroscopicity: 0-90% RH adsorption curve, at 80% RH; for Whether the crystal form is changed: after DVS test at 25° C.
From the text: The experimental method for characterizing an acid salt or a base salt of compound III by dynamic vapor sorption (DVS) was as follows: A small amount of a powder of a polymorph of compound III was taken and placed into a precise sample tray that matches the instrument. After the sample was loaded, the sample tray was sent into the instrument for analysis. In the present disclosure, the instrument model used in the dynamic vapor sorption analysis was Intrinsic PLUS; the experimental parameter was set as follows: a constant temperature of 25° C. was set; the mass percent change rate per unit time (dm/dt)=0.02%/min was used as a criterion for determining that a balance is achieved; the program humidity change cycle was set as follows: the initial relative humidity was 0%, and the endpoint relative humidity was 90%.
The DVS plot of the amorphous solid of the compound is shown in FIG. 67, and the DVS plot of crystal form D of the compound is shown in FIG. 68 The results are shown in the table below
The inventors assessed the stability risk of samples under varying humidity at 25° C. using the dynamic vapor sorption method and conducted the DVS test on the representative crystal form 2A of compound II to evaluate the hygroscopicity of the crystal form of the compound.

[4] = Solid state stability study of polymorph (purity by HPLC and crystal form change after 7 days storage); details: for purity change, long-term storage condition: 25° C./60% RH; for purity change, long-term storage condition / purity change, accelerated condition / purity change, high-temperature condition: 7 days; for purity change, high-temperature condition: 60° C., RH<30%; for crystal form change after storage: 7 days in long-term storage, accelerated and high-temperature conditions; for overall solid state stability: 7 days storage study, conclusion
Description: Crystal form 2A of compound II was preserved in long-term storage (25° C./60% RH), accelerated (40° C./75% RH), and high-temperature (60° C., RH<30%) conditions for 7 days, and tested for purity and crystal form change by HPLC, so as to examine the stability of the solids.

[5] = Equilibrium solubility study of polymorph in biological media (supernatant concentration; residual solid by XRPD); details: for crystal form change of the solid in FaSSGF: ~10 mg/mL suspension; for crystal form change of the solid in FaSSGF / crystal form change of the solid in other media: solid tested by XRPD; for stability in biological media compared with the amorphous solid: H2O; for crystal form change of the solid in other media: media other than FaSSGF (H2O, FaSSIF, FeSSIF); for Whether the crystal form is changed: residual solid by XRPD after 24 h at 37±2° C.
Description: (§1) In the tests, the solids were suspended in corresponding buffers to formulate suspensions (˜10 mg/mL), and the suspensions were mixed at 37±2° C. After 24 h, samples of the suspensions were taken. The supernatant was filtered, and the concentration was determined. The solid was tested by XRPD.
as §1, with “Crystal form 2A of compound II was tested for its equilibrium solubility in water (H2O), fasted state simulated gastric fluid (FaSSGF), fasted state simulated intestinal fluid (FaSSIF), and fed state simulated intestinal fluid (FeSSIF). In” for “In”

[6] = 25° C./60% RH, 7 days (long-term storage), compound I
[7] = 40° C./75% RH, 7 days (accelerated), compound I
[8] = 60° C., 7 days (high-temperature, RH<30%), compound I
[9] = FaSSGF, FaSSIF, FeSSIF, 37±2° C., 24 h
[10] = 25° C./60% RH, 7 days (long-term storage), compound II
[11] = 60° C., 7 days (high-temperature, RH<30%), compound II

Compound	Whether the crystal form is changed ([1]; H2O, polymorph of compound I)	Purity (%) [2, 6]	Crystal form change [2, 6]	Purity (%) [2, 7]	Crystal form change [2, 7]	Purity (%) [2, 8]	Crystal form change [2, 8]	Initial purity (%) ([2]; compound I)	solid form change after DVS [3]	hygroscopicity [3]	hygroscopicity ([3]; DVS, compound I)	Sample weight change at 80% RH (%) ([3]; DVS, compound I)	Whether the crystal form is changed ([3]; compound I)	purity change, long-term storage condition ([4]; HPLC)	purity change, accelerated condition ([4]; 40° C./75% RH, HPLC)	purity change, high-temperature condition ([4]; HPLC)	crystal form change of the solid in FaSSGF ([5]; FaSSGF, 37±2° C., 24 h)	stability in biological media compared with the amorphous solid [5, 9]	crystal form change of the solid in other media ([5]; 37±2° C., 24 h)	crystal form change after storage [4]	other results
O=C(O)c1ccc2nc(CN3CCC(Oc4cccc(COc5ccc(Cl)cc5F)n4)CC3)n(C[C@@H]3CCO3)c2c1 [amorphous solid of compound I, (S)-2-((4-((6-((4-chloro-2-fluorophenoxy)methyl)pyridin-2-yl)oxy)piperidin-1-yl)methyl)-1-(oxetan-2-ylmethyl)-1/-benzo[d]imidazole-6-carboxylic acid]	No	98.94%	No	95.86%	No	89.15%	No	98.98%	no solid form changes were observed	slightly hygroscopic	Slightly hygroscopic	0.90%	No	no significant purity changes	significant degradation	significant degradation	–	–	–	–	–
O=C(O)c1ccc2nc(CN3CCC(Oc4cccc(COc5ccc(Cl)cc5F)n4)CC3)n(C[C@@H]3CCO3)c2c1 [crystal form D of compound I, (S)-2-((4-((6-((4-chloro-2-fluorophenoxy)methyl)pyridin-2-yl)oxy)piperidin-I-yl)methyl)-1-(oxetan-2-ylmethyl)-1H-benzo[d]imidazole-6-carboxylic acid]	No	99.10%	No	98.98%	No	98.61%	No	99.15%	no solid form changes were observed	slightly hygroscopic	Slightly hygroscopic	1.08%	No	no significant purity changes	slightly reduced purities	slightly reduced purities	converted into a hydrochloride salt	significantly superior	no crystal form change was observed	no significant crystal form changes	Whether the crystal form is changed ([1]; FaSSIF, polymorph of compound I): No; Whether the crystal form is changed ([1]; FeSSIF, polymorph of compound I): No; solubility in the FaSSIF system ([5]; FaSSIF, 37±2° C., 24 h, compared with amorphous solid): significantly improved solubility; overall solid state stability [4]: significantly superior
N#Cc1ccc(OCc2cccc(OC3CCN(Cc4nc5ccc(C(=O)O)cc5n4C[C@@H]4CCO4)CC3)n2)c(F)c1 [crystal form 2A of compound II, (S)-2-((4-((6-((4-cyano-2-fluorophenoxy)methyl)pyridin-2-yl)oxy)piperidin-1-yl)methyl)-1-(oxetan-2-ylmethyl)-1H-benzo[d]imidazole-6-carboxylic acid]	–	–	–	–	–	–	–	–	no solid form changes were observed	slightly hygroscopic	–	–	–	no significant purity changes	no significant purity changes	no significant purity changes	converted into a hydrochloride salt	significantly superior	no crystal form changes	no significant purity changes or significant crystal form changes	Whether the crystal form is changed ([1]; H2O, polymorph of compound II): No; solubility thermodynamic at 24 h ([1]; fasted state simulated intestinal fluid (FaSSIF), FaSSIF, polymorph of compound II): 40 µg/mL (≈ 70 µM); solubility thermodynamic at 24 h ([1]; fed state simulated intestinal fluid (FeSSIF), FeSSIF, polymorph of compound II): 190 µg/mL (≈ 332 µM); solubility thermodynamic at 24 h ([1]; water, H2O, polymorph of compound II): 90 µg/mL (≈ 157 µM); Purity (%) [2, 10]: 97.65%; Crystal form change [2, 10]: No; Purity (%) [2, 11]: 97.63%; Crystal form change [2, 11]: No; Initial purity (%) ([2]; compound II): 97.71%; Whether the crystal form is changed ([5]; FaSSIF, polymorph of compound II): No; Whether the crystal form is changed ([5]; FeSSIF, polymorph of compound II): No; solubility thermodynamic at 24 h ([5]; fasted state simulated gastric fluid (FaSSGF), 37 °C, fassgf or other biorelevant, thermodynamic from solid, FaSSGF, suspension ~10 mg/mL, 37±2° C., 24 h, polymorph of compound II): 180 µg/mL (≈ 315 µM); hygroscopicity ([3]; DVS, compound II): Slightly hygroscopic; Sample weight change at 80% RH (%) ([3]; DVS, compound II): 0.71%; Whether the crystal form is changed ([3]; compound II): No; Purity (%) ([4]; 40° C./75% RH, 7 days (accelerated), HPLC, compound II): 97.38%; Crystal form change ([4]; 40° C./75% RH, 7 days (accelerated), compound II): No; overall solid state stability [4]: good stability
